From US10744136B2, “Sulfonamide derivatives as JAK inhibitors” (Avista Pharma Solutions, Inc., priority 2018, dated 2020) come the findings set out here.

This assay addresses T1, JAK1 (Homo sapiens, UniProt P23458).
T1 construct: purchased Thermo Fisher Scientific
The experiment in a line: Z'-LYTE JAK1 kinase screen (Thermo Fisher Scientific). The assay is classed as biochemical. As to conditions: 1% DMSO, ATP at Km apparent; for inhibition at 0.01 µM / % Inhibition 10 nM: test compound 10 nM; for inhibition at 0.1 µM / % Inhibition 100 nM: test compound 100 nM; for % Inhibition 1000 nm: test compound 1000 nm (so in the source); for % Inhibition 10 nM: 0.01 µM; for % Inhibition 100 nM: 0.1 µM. On the procedure: The example compounds were screened for Jak1 activity at Thermo Fisher Scientific, using their Z′-Lyte™ protocol, as described below. Selectivity screening against other kinases can be performed following similar procedures. Z′-LYTE Assay Conditions: The Test Compounds are screened in 1% DMSO (final) in the well. Three screening concentrations (10, 100, and 1000 nM) of test compounds were used. Peptide/Kinase Mixtures: All Peptide/Kinase Mixtures are diluted to a 2× working concentration in the appropriate Kinase Buffer (For JAK1, the 2×JAK1/Tyr 06 mixture is prepared in 50 mM HEPES pH 6.5, 0.01% BRIJ-35, 10 mM MgCl2, 1 mM EGTA, 0.02% NaN3. The final 10 μL Kinase Reaction consists of 21.2-91.5 ng JAK1 and 2 μM Tyr 06 in 50 mM HEPES pH 7.0, 0.01% BRIJ-35, 10 mM MgCl2, 1 mM EGTA, 0.01% NaN3. After the 1 hour Kinase Reaction incubation, 5 μL of a 1:128 dilution of Development Reagent A is added). ATP Solution: All ATP Solutions are diluted to a 4× working concentration in Kinase Buffer (50 mM HEPES pH 7.5, 0.01% BRIJ-35, 10 mM MgCl2, 1 mM EGTA). ATP: Km apparent is previously determined using a Z′-LYTE assay. 10× Novel PKC Lipid Mix: 2 mg/ml Phosphatidyl Serine, 0.2 mg/ml DAG in 20 mM HEPES, pH 7.4, 0.3% CHAPS. For 5 mL 10× Novel PKC Lipid Mix: • 1. Add 10 mgs Phosphatidyl Serine (Avanti Polar Lipids Part #8400032C or 840039C) and 1 mg DAG (Avanti Polar Lipids Part #800811C) to a glass tube. • 2. Remove the chloroform from lipid mixture by evaporating to a clear, thin film under a stream of nitrogen. Continuous rotation of the tube, at an angle to ensure maximum surface area of the lipid solution, will promote the thinnest film. • 3. Add 5 mLs resuspension buffer, 20 mM HEPES, 0.3% CHAPS, pH 7.4, to the dried lipid mix • 4. Heat gently to 50-60° C. for 1-2 minutes and vortex in short intervals until the lipids are dissolved to a clear or slightly hazy solution. The lipids are typically in solution after 2-3 heat/vortex cycles. • 5. Cool to room temperature, aliquot into single use volumes and store at −20° C. Assay Protocol Bar-coded Corning, low volume NBS, black 384-well plate (Corning Cat. #4514) • 1. 100 nL—100× Test Compound in 100% DMSO • 2. 2.4 μL—Kinase buffer • 3. 5 μL—2× Peptide/Kinase Mixture • 4. 2.5 μL—4×ATP Solution • 5. 30-second plate shake • 6. 60-minute Kinase Reaction incubation at room temperature • 7. 5 μL—Development Reagent Solution • 8. 30-second plate shake • 9. 60-minute Development Reaction incubation at room temperature • 10. Read on fluorescence plate reader and analyze the data.

T1 sequence (P23458 whole entry): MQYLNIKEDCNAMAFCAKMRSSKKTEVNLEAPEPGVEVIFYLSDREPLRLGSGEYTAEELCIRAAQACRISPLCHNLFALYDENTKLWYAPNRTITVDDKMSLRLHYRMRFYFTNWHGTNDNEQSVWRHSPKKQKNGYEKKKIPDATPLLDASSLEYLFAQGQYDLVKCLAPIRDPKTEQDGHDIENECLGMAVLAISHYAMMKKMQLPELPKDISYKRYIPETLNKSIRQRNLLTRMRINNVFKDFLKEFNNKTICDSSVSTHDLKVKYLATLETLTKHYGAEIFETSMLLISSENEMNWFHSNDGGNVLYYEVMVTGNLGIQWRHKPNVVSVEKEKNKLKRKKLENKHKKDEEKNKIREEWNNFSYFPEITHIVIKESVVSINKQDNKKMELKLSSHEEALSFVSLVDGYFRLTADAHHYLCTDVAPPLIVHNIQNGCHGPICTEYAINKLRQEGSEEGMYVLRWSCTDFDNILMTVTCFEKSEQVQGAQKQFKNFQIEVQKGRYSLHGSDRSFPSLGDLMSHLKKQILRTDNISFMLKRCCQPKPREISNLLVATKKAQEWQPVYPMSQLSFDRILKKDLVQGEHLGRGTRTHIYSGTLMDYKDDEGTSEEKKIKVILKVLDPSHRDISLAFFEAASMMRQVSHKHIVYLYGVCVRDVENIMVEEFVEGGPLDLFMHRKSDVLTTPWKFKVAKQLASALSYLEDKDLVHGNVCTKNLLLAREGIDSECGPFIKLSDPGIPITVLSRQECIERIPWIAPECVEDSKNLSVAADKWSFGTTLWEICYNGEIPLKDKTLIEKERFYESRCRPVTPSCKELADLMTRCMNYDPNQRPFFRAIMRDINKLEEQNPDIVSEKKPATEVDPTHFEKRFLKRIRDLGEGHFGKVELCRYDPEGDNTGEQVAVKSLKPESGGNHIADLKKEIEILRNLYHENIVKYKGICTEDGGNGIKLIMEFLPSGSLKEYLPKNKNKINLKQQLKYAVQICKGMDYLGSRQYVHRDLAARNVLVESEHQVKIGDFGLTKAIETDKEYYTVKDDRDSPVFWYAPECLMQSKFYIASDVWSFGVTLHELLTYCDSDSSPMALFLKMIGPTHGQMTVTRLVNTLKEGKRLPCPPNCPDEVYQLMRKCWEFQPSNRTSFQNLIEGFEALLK

A word on the inhibition: it is the relative decrease from the control value, in per cent. Turning to `CN(c1ncnc2[nH]ccc12)C1CC2(CC(NS(=O)(=O)c3ccc(C(F)(F)F)cc3)C2)C1` (centres unmarked) [Compound 14, N-[2-[methyl(7H-pyrrolo[2,3-d]pyrimidin-4-yl)amino]spiro[3.3]heptan-6-yl]-4-(trifluoromethyl)benzenesulfonamide], the inhibition at 0.01 µM was found to be 1%, the inhibition at 0.1 µM was determined as 56% and the “% Inhibition 1000 nm” value came to 92%.
In the case of `CN(c1ncnc2[nH]ccc12)C1CC2(CC(NS(C)(=O)=O)C2)C1` (centres unmarked) [Compound 15, N-[2-[methyl(7H-pyrrolo[2,3-d]pyrimidin-4-yl)amino]spiro[3.3]heptan-6-yl]methanesulfonamide], the inhibition at 0.01 µM worked out at 31%, the inhibition at 0.1 µM was found to be 78% and the “% Inhibition 1000 nm” value was 95%.
`CN(c1ncnc2[nH]ccc12)C1CC2(CC(CNS(C)(=O)=O)C2)C1` (centres unmarked) [Compound 22, N-((6-(methyl(7H-pyrrolo[2,3-d]pyrimidin-4-yl)amino)spiro[3.3]heptan-2-yl)methyl)methanesulfonamide]: the inhibition at 0.01 µM came to 76% and the inhibition at 0.1 µM is 96%.
In the case of `CCS(=O)(=O)NC1CC2(C1)CC(N(C)c1ncnc3[nH]ccc13)C2` (centres unmarked) [Compound 16, N-[2-[methyl(7H-pyrrolo[2,3-d]pyrimidin-4-yl)amino]spiro[3.3]heptan-6-yl]ethanesulfonamide], the inhibition at 0.01 µM was found to be 28%, the inhibition at 0.1 µM turned out to be 76% and the “% Inhibition 1000 nm” value worked out at 96%.
Turning to `CC(C)NS(=O)(=O)C1CC2(CC(N(C)c3ncnc4[nH]ccc34)C2)C1` (centres unmarked) [Compound 4, N-isopropyl-6-[methyl(7H-pyrrolo[2,3-d]pyrimidin-4-yl)amino]spiro[3.3]heptane-2-sulfonamide], the inhibition at 0.01 µM came out at 23%, the inhibition at 0.1 µM stood at 75% and the “% Inhibition 1000 nm” value was 95%.
For the compound `CNS(=O)(=O)C1CC2(CC(N(C)c3ncnc4[nH]ccc34)C2)C1` (single isomer, unassigned; enantiomer b) [Compound 27, (Enantiomer B)-N-methyl-6-[methyl(7H-pyrrolo[2,3-d]pyrimidin-4-yl)amino]spiro[3.3]heptane-2-sulfonamide], the “% Inhibition 10 nM” value turned out to be 12%, the “% Inhibition 100 nM” value is given as 52% and the “% Inhibition 1000 nm” value amounted to 89%.
For the compound `CNS(=O)(=O)C1CC2(CC(N(C)c3ncnc4[nH]ccc34)C2)C1` (single isomer, unassigned; enantiomer a) [Compound 26, (Enantiomer A)-N-methyl-6-[methyl(7H-pyrrolo[2,3-d]pyrimidin-4-yl)amino]spiro[3.3]heptane-2-sulfonamide], the “% Inhibition 10 nM” value was found to be 77%, the “% Inhibition 100 nM” value was determined as 96% and the “% Inhibition 1000 nm” value came out at 98%.
As to `CN(c1ncnc2[nH]ccc12)C1CC2(C1)CC(S(=O)(=O)N(C)C)C2` (centres unmarked) [Compound 29, N,N-dimethyl-6-[methyl(7H-pyrrolo[2,3-d]pyrimidin-4-yl)amino]spiro[3.3]heptane-2-sulfonamide], the inhibition at 0.01 µM worked out at 55%, the inhibition at 0.1 µM was 92% and the “% Inhibition 1000 nm” value was found to be 98%.
In the same order, the values of `CNS(=O)(=O)C1CC2(CC(N(C)c3ncnc4[nH]ccc34)C2)C1` (centres unmarked) [Compound 1, N-methyl-6-[methyl(7H-pyrrolo[2,3-d]pyrimidin-4-yl)amino]spiro[3.3]heptane-2-sulfonamide] are 71%, 92% and 96%.
As to `CN(c1ncnc2[nH]ccc12)C1CC2(C1)CC(S(=O)(=O)NC1CCCC1)C2` (centres unmarked) [Compound 10, N-cyclopentyl-6-[methyl(7H-pyrrolo[2,3-d]pyrimidin-4-yl)amino]spiro[3.3]heptane-2-sulfonamide], the inhibition at 0.01 µM was found to be 52%, the inhibition at 0.1 µM came to 84% and the “% Inhibition 1000 nm” value is reported as 97%.
For `CN(c1ncnc2[nH]ccc12)C1CC2(C1)CC(S(=O)(=O)NC1CC1)C2` (centres unmarked) [Compound 5, N-cyclopropyl-6-[methyl(7H-pyrrolo[2,3-d]pyrimidin-4-yl)amino]spiro[3.3]heptane-2-sulfonamide], the inhibition at 0.01 µM was 61%, the inhibition at 0.1 µM turned out to be 94% and the “% Inhibition 1000 nm” value turned out to be 99%.
In the same order, the values of `CNS(=O)(=O)C1CC2(CC(N(C)c3ncnc4[nH]ncc34)C2)C1` (centres unmarked) [Compound 25, N-methyl-6-[methyl(1H-pyrazolo[3,4-d]pyrimidin-4-yl)amino]spiro[3.3]heptane-2-sulfonamide] are 2%, 4% and 19%.
For the compound `CN(c1ncnc2[nH]ccc12)C1CC2(CC(NS(=O)(=O)c3ccccc3)C2)C1` (centres unmarked) [Compound 11, N-[2-[methyl(7H-pyrrolo[2,3-d]pyrimidin-4-yl)amino]spiro[3.3]heptan-6-yl]benzenesulfonamide], the inhibition at 0.01 µM stood at 11%, the inhibition at 0.1 µM was determined as 81% and the “% Inhibition 1000 nm” value was determined as 95%.
Regarding `CN(c1ncnc2[nH]ccc12)C1CC2(CC(NS(=O)(=O)C3CCCC3)C2)C1` (centres unmarked) [Compound 20, N-[2-[methyl(7H-pyrrolo[2,3-d]pyrimidin-4-yl)amino]spiro[3.3]heptan-6-yl]cyclopentanesulfonamide], the inhibition at 0.01 µM came to 33%, the inhibition at 0.1 µM came to 82% and the “% Inhibition 1000 nm” value was 97%.
For the compound `CCS(=O)(=O)NCC1CC2(C1)CC(N(C)c1ncnc3[nH]ccc13)C2` (centres unmarked) [Compound 23, N-((6-(methyl(7H-pyrrolo[2,3-d]pyrimidin-4-yl)amino)spiro[3.3]heptan-2-yl)methyl)ethanesulfonamide], the inhibition at 0.01 µM stood at 66%, the inhibition at 0.1 µM worked out at 94% and the “% Inhibition 1000 nm” value stood at 97%.
In the same order, the values of `CN(c1ncnc2[nH]ccc12)C1CC2(CC(NS(=O)(=O)c3ccc(Cl)cc3)C2)C1` (centres unmarked) [Compound 13, 4-chloro-N-[2-[methyl(7H-pyrrolo[2,3-d]pyrimidin-4-yl)amino]spiro[3.3]heptan-6-yl]benzenesulfonamide] are 27%, 77% and 95%.
On the same counts, the results for `CN(c1ncnc2[nH]ccc12)C1CC2(C1)CC(S(=O)(=O)NC(C)(C)C)C2` (centres unmarked) [Compound 8, N-tert-butyl-6-[methyl(7H-pyrrolo[2,3-d]pyrimidin-4-yl)amino]spiro[3.3]heptane-2-sulfonamide] are 37%, 82% and 94%.
Regarding `CN(c1ncnc2[nH]ccc12)C1CC2(C1)CC(S(=O)(=O)NC1CCC1)C2` (centres unmarked) [Compound 9, N-cyclobutyl-6-[methyl(7H-pyrrolo[2,3-d]pyrimidin-4-yl)amino]spiro[3.3]heptane-2-sulfonamide], the inhibition at 0.01 µM was determined as 64%, the inhibition at 0.1 µM turned out to be 93% and the “% Inhibition 1000 nm” value stood at 99%.
On the same counts, the results for `CCCS(=O)(=O)NC1CC2(C1)CC(N(C)c1ncnc3[nH]ccc13)C2` (centres unmarked) [Compound 17, N-[2-[methyl(7H-pyrrolo[2,3-d]pyrimidin-4-yl)amino]spiro[3.3]heptan-6-yl]propane-1-sulfonamide] are 38%, 83% and 95%.
In the same order, the values of `CN(c1ncnc2[nH]ccc12)C1CC2(CC(NS(=O)(=O)CCC(F)(F)F)C2)C1` (centres unmarked) [Compound 21, 3,3,3-trifluoro-N-[2-[methyl(7H-pyrrolo[2,3-d]pyrimidin-4-yl)amino]spiro[3.3]heptan-6-yl]propane-1-sulfonamide] are 46%, 85% and 98%.
